The source of these data is PMC3530479, “Bestrophin-Encoded Ca^2+-Activated Cl^− Channels Underlie a Current with Properties Similar to the Native Current in the Moth Spodoptera littoralis Olfactory Receptor Neurons” (PLoS ONE, 2012).

For this experiment, the target named is T1, SlitBest1b (Spodoptera littoralis, UniProt I6YK90).
T1 construct: full open reading frame without stop codon in pCINeo/IRES-GFP, expressed transiently in CHO-K1 cells
T1 sequence (I6YK90 1-707): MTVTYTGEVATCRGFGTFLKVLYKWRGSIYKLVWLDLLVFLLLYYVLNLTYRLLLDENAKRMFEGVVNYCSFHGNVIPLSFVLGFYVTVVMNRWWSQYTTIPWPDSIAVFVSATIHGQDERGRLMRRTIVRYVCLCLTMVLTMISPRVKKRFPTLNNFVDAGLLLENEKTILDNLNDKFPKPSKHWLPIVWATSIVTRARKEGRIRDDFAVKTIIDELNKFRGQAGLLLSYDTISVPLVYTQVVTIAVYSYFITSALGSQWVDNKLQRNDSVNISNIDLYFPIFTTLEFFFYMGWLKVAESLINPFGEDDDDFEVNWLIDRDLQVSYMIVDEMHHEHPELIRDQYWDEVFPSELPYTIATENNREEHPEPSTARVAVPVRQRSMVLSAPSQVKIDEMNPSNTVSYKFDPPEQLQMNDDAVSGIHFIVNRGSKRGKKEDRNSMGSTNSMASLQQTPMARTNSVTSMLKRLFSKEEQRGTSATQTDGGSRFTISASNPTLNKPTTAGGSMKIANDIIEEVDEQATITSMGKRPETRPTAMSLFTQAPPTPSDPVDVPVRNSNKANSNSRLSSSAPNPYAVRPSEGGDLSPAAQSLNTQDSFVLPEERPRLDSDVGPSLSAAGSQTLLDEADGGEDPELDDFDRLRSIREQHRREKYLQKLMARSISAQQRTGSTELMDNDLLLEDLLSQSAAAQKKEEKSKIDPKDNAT
As to the kind of experiment: whole-cell patch clamp, steady-state Ca2+-activated Cl- current in transfected CHO-K1 cells. The format is cell-based. An excerpt:
whole-cell patch clamp, steady-state Ca2+-activated Cl- current in transfected CHO-K1 cells on SlitBest1b
A general note: Patch clamp records ionic current or voltage across a cell membrane.

Take `O=C(O)c1cc([N+](=O)[O-])ccc1NCCCc1ccccc1` [NPPB, 5-nitro-2-(3-phenylpropylamino) benzoic acid]: the inhibition (usually the relative decrease from the control value, in per cent) at 100 µM turned out to be 101 ± 7.6%.

In the case of `O=C(O)c1cccnc1Nc1cccc(C(F)(F)F)c1` [niflumic acid], the inhibition at 300 µM stood at 65.1 ± 8.9%.

Regarding `O=C(O)c1ccccc1Nc1cccc(C(F)(F)F)c1` [flufenamic acid], the inhibition at 100 µM came to 78.7 ± 8.2%.
